Results from ChEMBL document CHEMBL1201862, “PubChem BioAssay data set” (2004).
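Tested at 5 concentrations; 48 h exposure; 96-well plates; endpoints linearly interpolated, else capped at highest concentration. GI50: concentration for 50% inhibition of growth.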 Calls of active or inactive are those of the source. Cut-off read from the data, not from the text of the source: active = GI50 up to about 1.1 µM and inactive = higher.

Key:
Assay in all cases: NCI tumour cell line growth inhibition, 48 h
[1] = test system: Hs-578T
[2] = test system: EKVX
[3] = test system: UACC-62
[4] = test system: OVCAR-3
[5] = test system: HOP-92
[6] = test system: 786-0
[7] = test system: COLO 205
[8] = test system: A498
[9] = test system: LOX IMVI
[10] = test system: HT-29
[11] = test system: RPMI-8226
[12] = test system: MDA-N
[13] = test system: M14
[14] = test system: MDA-MB-231
[15] = test system: SF-295
[16] = test system: SW-620
[17] = test system: HCT-15
[18] = test system: NCI-H522
[19] = test system: SK-OV-3
[20] = test system: SK-MEL-5
[21] = test system: BT-549
[22] = test system: DU-145
[23] = test system: SF-268
[24] = test system: CCRF-CEM
[25] = test system: UACC-257
[26] = test system: Malme-3M
[27] = test system: UO-31
[28] = test system: NCI-H226
[29] = test system: SN12C
[30] = test system: MOLT-4
[31] = test system: SF-539
[32] = test system: U-251
[33] = test system: MCF7
[34] = test system: KM12
[35] = test system: OVCAR-5
[36] = test system: MDA-MB-435
[37] = test system: ACHN
[38] = test system: T47D
[39] = test system: A549
[40] = test system: OVCAR-4
[41] = test system: SNB-19
[42] = test system: HL-60
[43] = test system: HCC 2998
[44] = test system: NCI/ADR-RES
[45] = test system: SNB-75
[46] = test system: NCI-H460
[47] = test system: SK-MEL-2
[48] = test system: SK-MEL-28
[49] = test system: OVCAR-8
[50] = test system: PC-3
[51] = test system: HCT-116
[52] = test system: CAKI-1
[53] = test system: IGROV-1
[54] = test system: NCI-H23
[55] = test system: K562
[56] = test system: TK-10
[57] = test system: RXF 393
[58] = test system: HOP-62

`COC(=O)c1ccc(NCc2c(O)ccc(O)c2Br)cc1Cl` was tested, and the GI50 [1] was 25.1 µM (inactive), the GI50 [2] was 14.6 µM (inactive) and the GI50 [3] was 15.7 µM (inactive). The GI50 [4] was 8.77 µM (inactive), the GI50 [5] was 14.9 µM (inactive) and the GI50 [6] was 18.4 µM (inactive). For the same compound, the GI50 [7] was 18.1 µM (inactive), the GI50 [8] was > 100 µM (inactive) and the GI50 [9] was 13 µM (inactive). The GI50 [10] was 20.7 µM (inactive), the GI50 [11] was 3.56 µM (inactive) and the GI50 [12] was 12 µM (inactive). The GI50 [13] was 17.5 µM (inactive), the GI50 [14] was 15.2 µM (inactive) and the GI50 [15] was 18.9 µM (inactive). The GI50 [16] was 12.2 µM (inactive), the GI50 [17] was 16.6 µM and the GI50 [18] was 0.329 µM (active). For the same compound, the GI50 [19] was > 100 µM (inactive), the GI50 [20] was 18.5 µM (inactive) and the GI50 [21] was 11.2 µM (inactive). The GI50 [22] was 16.2 µM (inactive), the GI50 [23] was 17.4 µM (inactive) and the GI50 [24] was 0.367 µM (active). For the same compound, the GI50 [25] was 25.2 µM (inactive), the GI50 [26] was 18.3 µM (inactive) and the GI50 [27] was 15.8 µM (inactive). The GI50 [28] was 31.5 µM (inactive), the GI50 [29] was 12.6 µM (inactive) and the GI50 [30] was 1.36 µM (inactive). The GI50 [31] was 14.2 µM (inactive), the GI50 [32] was 16.7 µM (inactive) and the GI50 [33] was 16 µM (inactive). For the same compound, the GI50 [34] was 15.3 µM (inactive), the GI50 [35] was 14.6 µM (inactive) and the GI50 [36] was 13.6 µM (inactive). For the same compound, the GI50 [37] was 15.6 µM (inactive), the GI50 [38] was 19.6 µM (inactive) and the GI50 [39] was 54.7 µM (inactive). For the same compound, the GI50 [40] was 18.2 µM (inactive), the GI50 [41] was 25.9 µM (inactive) and the GI50 [42] was 1.69 µM (inactive). The GI50 [43] was 19.1 µM (inactive), the GI50 [44] was 12.2 µM (inactive) and the GI50 [45] was 23.1 µM (inactive). For the same compound, the GI50 [46] was 18.7 µM (inactive), the GI50 [47] was 19.1 µM (inactive) and the GI50 [48] was 16.8 µM (inactive). For the same compound, the GI50 [49] was 14.7 µM (inactive), the GI50 [50] was 13.8 µM (inactive) and the GI50 [51] was 17.8 µM (inactive). The GI50 [52] was 15.8 µM (inactive), the GI50 [53] was 14.5 µM (inactive) and the GI50 [54] was 16.6 µM (inactive). For the same compound, the GI50 [55] was 1.78 µM (inactive).
`Nc1nnnn1CCO` was tested, and the GI50 [1] was > 100 µM (inactive), the GI50 [2] was > 100 µM (inactive) and the GI50 [3] was > 100 µM (inactive). The GI50 [4] was > 100 µM (inactive), the GI50 [5] was > 100 µM (inactive) and the GI50 [6] was > 100 µM (inactive). The GI50 [7] was > 100 µM (inactive), the GI50 [8] was > 100 µM (inactive) and the GI50 [9] was > 100 µM (inactive). For the same compound, the GI50 [10] was > 100 µM (inactive), the GI50 [11] was > 100 µM (inactive) and the GI50 [12] was > 100 µM (inactive). The GI50 [13] was > 100 µM (inactive), the GI50 [14] was > 100 µM (inactive) and the GI50 [15] was > 100 µM (inactive). For the same compound, the GI50 [16] was > 100 µM (inactive), the GI50 [17] was over 100 µM and the GI50 [18] was > 100 µM (inactive). For the same compound, the GI50 [19] was > 100 µM (inactive), the GI50 [20] was > 100 µM (inactive) and the GI50 [21] was > 100 µM (inactive). The GI50 [22] was > 100 µM (inactive), the GI50 [23] was > 100 µM (inactive) and the GI50 [25] was > 100 µM (inactive). The GI50 [26] was > 100 µM (inactive), the GI50 [27] was > 100 µM (inactive) and the GI50 [28] was > 100 µM (inactive). For the same compound, the GI50 [29] was > 100 µM (inactive), the GI50 [31] was > 100 µM (inactive) and the GI50 [32] was > 100 µM (inactive). The GI50 [33] was > 100 µM (inactive), the GI50 [34] was > 100 µM (inactive) and the GI50 [35] was > 100 µM (inactive). The GI50 [36] was > 100 µM (inactive), the GI50 [56] was > 100 µM (inactive) and the GI50 [37] was > 100 µM (inactive). For the same compound, the GI50 [38] was > 100 µM (inactive), the GI50 [39] was > 100 µM (inactive) and the GI50 [40] was > 100 µM (inactive). The GI50 [41] was > 100 µM (inactive), the GI50 [57] was > 100 µM (inactive) and the GI50 [44] was > 100 µM (inactive). The GI50 [45] was > 100 µM (inactive), the GI50 [58] was > 100 µM (inactive) and the GI50 [46] was > 100 µM (inactive). For the same compound, the GI50 [47] was > 100 µM (inactive), the GI50 [48] was > 100 µM (inactive) and the GI50 [49] was > 100 µM (inactive). The GI50 [50] was > 100 µM (inactive), the GI50 [51] was > 100 µM (inactive) and the GI50 [52] was > 100 µM (inactive). The GI50 [53] was > 100 µM (inactive), the GI50 [54] was > 100 µM (inactive) and the GI50 [55] was > 100 µM (inactive).
